Laboratory results: patent US20150064305A1, “USE OF PARA NITRO AMINO DERIVATIVES IN FEED FOR REDUCING METH-ANE EMISSION IN RUMINANTS” (DSM IP ASSETS B.V., priority 2012, published 2015)

System: methanogenesis in rumen liquor
Experiment: In vitro test for methane production (modified Hohenheim Forage value Test, HFT)
Settings: reduction in methane produced compared to control, average of two experiments
Procedure: A modified version of the “Hohenheim Forage value Test (HFT)” was used for testing the effect of specific compounds on the rumen functions mimicked by this in-vitro system.
Feed is given into a syringe with a composition of rumen liquor and an appropriate mixture of buffers. The solution is incubated at 39° C. After 8 hours the quantity (and composition) of methane produced is measured and put into a formula for conversion.
The feed stuff is sieved to 1 mm—usually TMR (44% concentrate, 6% hay, 37% maize silage and 13% grass silage)—and weighed exactly into 64 syringes. 4 of these syringes are the substrate controls, which display the gas production without the effect of the tested compounds. 4 other syringes are positive control, in which bromoethane sulfonate has been added to 0.1 mM. When needed, 4 syringes contain a carrier control (if the test compounds need a carrier). The remaining syringes contain the test substances, by groups of 4 syringes.
The components are mixed in a Woulff bottle in following order: • 711 ml water • 0.18 ml trace element solution • 355.5 ml buffer solution • 355.5 ml mass element solution
The completed solution is warmed up to 39° C. followed by the addition of 1.83 ml sodium salt solution and the addition of reduction solution at 36° C. The rumen liquor is added, when the indicator turns colourless.
750 ml of rumen liquor are added to approximately 1,400 ml of medium solution under continued agitation and CO2-gassing.
The diluted rumen fluid (24 ml) is added to the glass syringe. The syringes are then incubated for 8 hours at 39° C. under gentle agitation. After 8 hours, the volume of gas produced is measured, and the percentage of methane in the gas phase is determined by gas chromatography.
The food fermented was artificial TMR (44% concentrate, 6% hay, 37% maize silage and 13% grass silage). The compounds produced as described in examples 3 to 11 were added to the fermentation syringes to a concentration of 1 to 0.1% of dry matter (DM).
The same in vitro assay as described in Example 1 has been performed with a series of molecules, wherein either the amine group has been replaced or, the amine group is not in para position.

[1] = comparative compounds (Table 3), 1% DM
[2] = 0.1% DM, artificial TMR feed, 8 hours at 39° C.
[3] = 1% DM, artificial TMR feed, 8 hours at 39° C.
[4] = 0.25% DM, artificial TMR feed, 8 hours at 39° C.
[5] = 0.5% DM, artificial TMR feed, 8 hours at 39° C.

Compound | effect on methanogenesis (%) [1] | effect on methanogenesis (%) [2] | effect on methanogenesis (%) [3] | effect on methanogenesis (%) [4] | effect on methanogenesis (%) [5]
O=C(O)c1ccc(C(=O)Nc2ccc([N+](=O)[O-])cc2)cc1 [C, reference compound] | 3% | – | – | – | –
CCNc1ccc([N+](=O)[O-])cc1 [Compound 3, Ethyl-(4-nitro-phenyl)-amine] | – | 0% | 97% | – | –
CC(C)Nc1ccc([N+](=O)[O-])cc1 [Compound 6, Isopropyl-(4-nitro-phenyl)-amine] | – | 2% | 99% | – | –
O=[N+]([O-])c1ccc(NCCCO)cc1 [Compound 8, 3-(4-Nitro-phenylamino)-propan-1-ol] | – | 1% | 100% | – | –
Nc1cccc([N+](=O)[O-])c1 [Compound B, 3-Nitro-phenylamine, reference compound] | 7% | – | – | – | –
O=C(O)c1ccc(COc2ccc([N+](=O)[O-])cc2)cc1 [Compound D, 4-(4-Nitro-phenoxymethyl)-benzoic acid, reference compound] | 6% | – | – | – | –
O=C(O)c1cccc(CNc2ccc([N+](=O)[O-])cc2)c1 [Compound 11, 3-((4-Nitro-phenylamino)-methyl)-benzoic acid] | – | 1% | 88% | – | –
Nc1ccc([N+](=O)[O-])cc1 [Compound 1, (4-nitro-phenyl)-amine] | – | 15% | 100% | 43% | 88%
O=C(O)c1ccc(CNc2ccc([N+](=O)[O-])cc2)cc1 [Compound 10, 4-((4-Nitro-phenylamino)-methyl)-benzoic acid] | – | – | 97% | 3% | 21%
O=[N+]([O-])c1ccc(NCCO)cc1 [Compound 7, 2-(4-Nitro-phenylamino)-ethanol] | – | 6% | 100% | – | –
CNc1ccc([N+](=O)[O-])cc1 [Compound 2, Methyl-(4-nitro-phenyl)-amine] | – | 3% | 96% | – | –
O=[N+]([O-])c1ccc(NCc2ccccn2)cc1 [Compound 9, 4-Nitro-N-(Pyridin-2-ylmethyl)aniline] | – | 3% | 95% | – | –
Cc1ccc([N+](=O)[O-])cc1 [A, reference compound] | 8% | – | – | – | –
CN(C)c1ccc([N+](=O)[O-])cc1 [Compound 4, Dimethyl-(4-nitro-phenyl)-amine] | – | 0% | 94% | – | –
CCCNc1ccc([N+](=O)[O-])cc1 [Compound 5, (4-Nitro-phenyl)-propyl-amine] | – | 5% | 100% | 20% | 60%
O=[N+]([O-])c1ccc(N2CCOCC2)cc1 [Compound F, 4-(4-Nitrophenyl)morpholine, reference compound] | 8% | – | – | – | –
